Experimental data published in ChEMBL document CHEMBL3997792, “Identification of the First Selective Activin Receptor-Like Kinase 1 Inhibitor, a Reversible Version of L-783277” (J Med Chem, 2017).
Active and inactive are the calls of the source. The calls are words filed in the database; no cut-off is given here.

Key:
[1] = target: T1, Activin receptor type-1-like (Mus musculus) (UniProt Q61288); experiment: Inhibition of BMP9-stimulated ALK1 in mouse C2C12 cells assessed as reduction in Smad1/5 phosphorylation at 10 uM pretreated for 2 hrs followed by BMP9-stimulation after 30 mins by western blot analysis relative to control; assay type: cell-based
T1 sequence (whole entry): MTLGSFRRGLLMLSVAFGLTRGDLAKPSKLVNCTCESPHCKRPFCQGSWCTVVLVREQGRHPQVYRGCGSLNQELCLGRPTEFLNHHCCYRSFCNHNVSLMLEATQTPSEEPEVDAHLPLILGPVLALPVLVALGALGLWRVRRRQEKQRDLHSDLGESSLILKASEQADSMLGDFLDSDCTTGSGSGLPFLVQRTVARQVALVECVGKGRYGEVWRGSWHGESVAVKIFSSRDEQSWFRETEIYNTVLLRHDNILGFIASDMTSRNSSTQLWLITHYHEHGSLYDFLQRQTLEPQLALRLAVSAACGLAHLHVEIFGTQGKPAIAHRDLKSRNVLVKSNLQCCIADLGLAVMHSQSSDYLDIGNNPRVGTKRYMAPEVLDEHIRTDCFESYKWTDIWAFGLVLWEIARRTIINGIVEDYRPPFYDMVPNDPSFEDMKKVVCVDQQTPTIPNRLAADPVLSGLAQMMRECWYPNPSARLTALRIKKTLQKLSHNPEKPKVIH

[2] = target: T2, Activin receptor type-1-like (Homo sapiens, UniProt P37023); experiment: Inhibition of human ALK1 using casein as substrate in presence of [gamma-33P]-ATP by scintillation counting method
[3] = target: MAP kinase-interacting serine/threonine-protein kinase 2 (Homo sapiens) (UniProt Q9HBH9); details: 1 uM
Description: Inhibition of human MNK2 at 1 uM using myelin basic protein as substrate in presence of [gamma-33P]-ATP by scintillation counting method relative to control

[4] = target: Dual specificity mitogen-activated protein kinase kinase 2 (Homo sapiens, UniProt P36507); experiment: Inhibition of human MEK2 using ERK2 as substrate in presence of [gamma-33P]-ATP by scintillation counting method
[5] = target: Mitogen-activated protein kinase kinase kinase 7 (Homo sapiens) (UniProt O43318); details: 1 uM
Description: Inhibition of human TAK1 at 1 uM using casein as substrate in presence of [gamma-33P]-ATP by scintillation counting method relative to control

[6] = target: Mitogen-activated protein kinase kinase kinase 20 (Homo sapiens) (UniProt Q9NYL2); details: 1 uM
Description: Inhibition of human ZAK at 1 uM using myelin basic protein as substrate in presence of [gamma-33P]-ATP by scintillation counting method relative to control

[7] = target: Vascular endothelial growth factor receptor 2 (Homo sapiens, UniProt P35968); experiment: Inhibition of human KDR using poly[Glu:Tyr] (4:1) as substrate in presence of [gamma-33P]-ATP by scintillation counting method
[8] = target: T1, Activin receptor type-1-like (Mus musculus); experiment: Inhibition of BMP9-stimulated ALK1 in mouse C2C12 cells assessed as reduction in Smad1/5 phosphorylation at 0.1 to 10 uM pretreated for 2 hrs followed by BMP9-stimulation after 30 mins by western blot analysis; assay type: cell-based
[9] = target: T2, Activin receptor type-1-like; details: 0.1 to 10 uM
Description: Inhibition of ALK1 in human A375 cells assessed as decrease in MEK1/2 phosphorylation at 0.1 to 10 uM by western blot analysis

[10] = target: T1, Activin receptor type-1-like (Mus musculus); experiment: Inhibition of BMP9-stimulated ALK1 in mouse C2C12 cells assessed as decrease in p38 phosphorylation at 0.1 to 10 uM pretreated for 2 hrs followed by BMP9-stimulation after 30 mins by western blot analysis; assay type: cell-based
[11] = target: TGF-beta receptor type-2 (Homo sapiens) (UniProt P37173); details: 1 uM
Description: Inhibition of human TGFbetaR2 at 1 uM using myelin basic protein as substrate in presence of [gamma-33P]-ATP by scintillation counting method relative to control

[12] = target: T1, Activin receptor type-1-like (Mus musculus); experiment: Inhibition of BMP9-stimulated ALK1 in mouse C2C12 cells assessed as decrease in MEK phosphorylation at 0.1 to 10 uM pretreated for 2 hrs followed by BMP9-stimulation after 30 mins by western blot analysis; assay type: cell-based
TGF-beta receptor type-1 [13] = target: T3, TGF-beta receptor type-1 (Mus musculus, UniProt Q64729); experiment: Inhibition of ALK5 in mouse C2C12 cells assessed as decrease in TGFbeta1-induced Smad2/3 phosphorylation at 0.1 to 10 uM by Western blot method; assay type: cell-based
T3 sequence (Q64729 whole entry): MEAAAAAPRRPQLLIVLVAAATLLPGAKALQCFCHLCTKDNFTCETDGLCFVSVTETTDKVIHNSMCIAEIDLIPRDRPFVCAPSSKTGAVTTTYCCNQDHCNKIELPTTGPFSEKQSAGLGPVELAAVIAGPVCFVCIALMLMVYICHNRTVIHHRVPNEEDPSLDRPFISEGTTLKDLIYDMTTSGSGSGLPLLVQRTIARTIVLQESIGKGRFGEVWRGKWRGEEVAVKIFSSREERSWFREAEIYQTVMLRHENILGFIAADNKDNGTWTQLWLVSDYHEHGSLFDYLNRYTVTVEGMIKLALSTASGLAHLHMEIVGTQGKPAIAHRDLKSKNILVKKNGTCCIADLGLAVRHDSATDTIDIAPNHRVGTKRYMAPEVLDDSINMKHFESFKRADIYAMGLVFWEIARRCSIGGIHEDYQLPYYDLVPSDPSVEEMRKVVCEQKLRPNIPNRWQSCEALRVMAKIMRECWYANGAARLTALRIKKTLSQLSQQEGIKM

[14] = target: T1, Activin receptor type-1-like (Mus musculus); experiment: Inhibition of BMP9-stimulated ALK1 in mouse C2C12 cells assessed as decrease in ERK1/2 phosphorylation at 0.1 to 10 uM pretreated for 2 hrs followed by BMP9-stimulation after 30 mins by western blot analysis; assay type: cell-based
[15] = target: Dual specificity mitogen-activated protein kinase kinase 6 (Homo sapiens) (UniProt P52564); experiment: Inhibition of human MKK6 at 1 uM using p38a as substrate in presence of [gamma-33P]-ATP by scintillation counting method relative to control
TGF-beta receptor type-1 [16] = target: T3, TGF-beta receptor type-1; experiment: Inhibition of ALK5 in mouse C2C12 assessed as decrease in TGFbeta1-induced Smad1/5 phosphorylation at 0.1 to 10 uM by Western blot method
[17] = target: Dual specificity mitogen-activated protein kinase kinase 6 (Homo sapiens, UniProt P52564); experiment: Inhibition of human MKK6 using p38a as substrate in presence of [gamma-33P]-ATP by scintillation counting method
[18] = target: Receptor-type tyrosine-protein kinase FLT3 (Homo sapiens, UniProt P36888); experiment: Inhibition of human FLT3 using EAIYAAPFAKKK peptide as substrate in presence of [gamma-33P]-ATP by scintillation counting method
[19] = target: Vascular endothelial growth factor receptor 3 (Homo sapiens, UniProt P35916); experiment: Inhibition of human FLT4 using poly[Glu:Tyr] (4:1) as substrate in presence of [gamma-33P]-ATP by scintillation counting method
[20] = target: Dual specificity mitogen-activated protein kinase kinase 4 (Homo sapiens) (UniProt P45985); details: 1 uM
Description: Inhibition of human MKK4 at 1 uM using JNK1 as substrate in presence of [gamma-33P]-ATP by scintillation counting method relative to control

[21] = target: MAP kinase-interacting serine/threonine-protein kinase 1 (Homo sapiens) (UniProt Q9BUB5); details: 1 uM
Description: Inhibition of human MNK1 at 1 uM using myelin basic protein as substrate in presence of [gamma-33P]-ATP by scintillation counting method relative to control

T2 sequence (P37023 whole entry): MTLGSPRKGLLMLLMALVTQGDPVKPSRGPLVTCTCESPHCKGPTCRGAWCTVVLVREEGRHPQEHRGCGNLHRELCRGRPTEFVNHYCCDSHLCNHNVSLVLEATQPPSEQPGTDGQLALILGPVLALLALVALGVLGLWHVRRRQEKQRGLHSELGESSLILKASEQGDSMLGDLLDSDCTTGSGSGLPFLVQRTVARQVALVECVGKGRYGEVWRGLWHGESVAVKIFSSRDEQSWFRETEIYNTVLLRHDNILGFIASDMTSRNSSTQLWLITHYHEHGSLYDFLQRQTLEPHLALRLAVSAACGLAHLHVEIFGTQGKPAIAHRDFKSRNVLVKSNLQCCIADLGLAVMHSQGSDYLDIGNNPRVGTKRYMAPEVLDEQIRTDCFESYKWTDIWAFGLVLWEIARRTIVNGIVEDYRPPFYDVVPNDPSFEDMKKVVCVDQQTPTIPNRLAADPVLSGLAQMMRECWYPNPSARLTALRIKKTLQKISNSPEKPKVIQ
Sequence of MAP kinase-interacting serine/threonine-protein kinase 2 (Homo sapiens) (Q9HBH9 whole entry, looked up): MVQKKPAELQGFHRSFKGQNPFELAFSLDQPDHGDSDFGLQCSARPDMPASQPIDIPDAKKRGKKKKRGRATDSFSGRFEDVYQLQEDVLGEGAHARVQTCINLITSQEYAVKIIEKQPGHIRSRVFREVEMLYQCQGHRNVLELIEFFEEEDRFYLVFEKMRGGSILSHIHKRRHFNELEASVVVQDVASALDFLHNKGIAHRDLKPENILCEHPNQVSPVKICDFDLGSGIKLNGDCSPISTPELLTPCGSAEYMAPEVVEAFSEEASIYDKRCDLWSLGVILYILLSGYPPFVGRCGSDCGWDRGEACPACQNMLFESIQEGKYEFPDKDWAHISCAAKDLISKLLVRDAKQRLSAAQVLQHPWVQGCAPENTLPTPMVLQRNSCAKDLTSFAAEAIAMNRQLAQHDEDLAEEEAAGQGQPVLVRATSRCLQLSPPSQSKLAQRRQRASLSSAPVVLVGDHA
Sequence of TGF-beta receptor type-2 (Homo sapiens) (P37173 whole entry): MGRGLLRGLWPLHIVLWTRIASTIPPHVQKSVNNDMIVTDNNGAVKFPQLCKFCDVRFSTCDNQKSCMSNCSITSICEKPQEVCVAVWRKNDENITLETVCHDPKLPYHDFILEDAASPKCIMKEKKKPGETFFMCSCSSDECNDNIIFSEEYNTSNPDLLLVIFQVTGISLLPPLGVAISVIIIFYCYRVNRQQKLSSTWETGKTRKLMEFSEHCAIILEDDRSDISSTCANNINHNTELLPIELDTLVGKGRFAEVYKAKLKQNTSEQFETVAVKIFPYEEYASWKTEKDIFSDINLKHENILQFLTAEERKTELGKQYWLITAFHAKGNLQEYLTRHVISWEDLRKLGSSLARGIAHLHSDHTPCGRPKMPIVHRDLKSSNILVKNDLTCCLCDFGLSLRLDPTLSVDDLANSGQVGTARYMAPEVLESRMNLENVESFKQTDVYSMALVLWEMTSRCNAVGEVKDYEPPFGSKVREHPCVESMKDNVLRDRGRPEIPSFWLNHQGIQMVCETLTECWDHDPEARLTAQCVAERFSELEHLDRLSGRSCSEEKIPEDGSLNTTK
Sequence of Receptor-type tyrosine-protein kinase FLT3 (P36888 whole entry): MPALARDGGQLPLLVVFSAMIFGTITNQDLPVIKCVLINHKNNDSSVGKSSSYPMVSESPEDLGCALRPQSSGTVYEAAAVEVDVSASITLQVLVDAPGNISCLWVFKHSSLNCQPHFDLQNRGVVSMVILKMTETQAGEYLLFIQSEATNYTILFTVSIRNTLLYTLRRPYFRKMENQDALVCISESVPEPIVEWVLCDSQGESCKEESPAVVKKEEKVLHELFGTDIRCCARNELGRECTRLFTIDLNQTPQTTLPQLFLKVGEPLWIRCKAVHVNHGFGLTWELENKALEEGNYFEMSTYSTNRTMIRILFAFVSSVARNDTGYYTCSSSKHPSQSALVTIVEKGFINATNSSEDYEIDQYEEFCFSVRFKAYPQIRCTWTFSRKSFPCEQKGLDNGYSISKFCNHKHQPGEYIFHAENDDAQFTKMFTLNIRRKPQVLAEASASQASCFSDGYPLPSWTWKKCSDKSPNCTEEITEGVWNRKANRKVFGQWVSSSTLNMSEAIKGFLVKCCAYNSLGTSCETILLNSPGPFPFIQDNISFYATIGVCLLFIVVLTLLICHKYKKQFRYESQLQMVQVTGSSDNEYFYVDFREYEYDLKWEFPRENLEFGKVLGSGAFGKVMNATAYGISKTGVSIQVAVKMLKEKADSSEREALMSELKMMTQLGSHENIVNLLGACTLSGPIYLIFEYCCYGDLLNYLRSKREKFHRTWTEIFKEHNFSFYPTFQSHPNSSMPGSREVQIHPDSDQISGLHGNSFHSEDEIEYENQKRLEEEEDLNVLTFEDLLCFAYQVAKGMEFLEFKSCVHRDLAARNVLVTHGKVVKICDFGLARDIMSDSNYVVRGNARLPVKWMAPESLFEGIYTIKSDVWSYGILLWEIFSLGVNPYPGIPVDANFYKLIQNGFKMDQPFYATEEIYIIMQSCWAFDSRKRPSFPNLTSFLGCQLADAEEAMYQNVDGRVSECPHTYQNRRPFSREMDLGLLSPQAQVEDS
Sequence of Mitogen-activated protein kinase kinase kinase 20 (Homo sapiens) (Q9NYL2 2-800 limits assumed): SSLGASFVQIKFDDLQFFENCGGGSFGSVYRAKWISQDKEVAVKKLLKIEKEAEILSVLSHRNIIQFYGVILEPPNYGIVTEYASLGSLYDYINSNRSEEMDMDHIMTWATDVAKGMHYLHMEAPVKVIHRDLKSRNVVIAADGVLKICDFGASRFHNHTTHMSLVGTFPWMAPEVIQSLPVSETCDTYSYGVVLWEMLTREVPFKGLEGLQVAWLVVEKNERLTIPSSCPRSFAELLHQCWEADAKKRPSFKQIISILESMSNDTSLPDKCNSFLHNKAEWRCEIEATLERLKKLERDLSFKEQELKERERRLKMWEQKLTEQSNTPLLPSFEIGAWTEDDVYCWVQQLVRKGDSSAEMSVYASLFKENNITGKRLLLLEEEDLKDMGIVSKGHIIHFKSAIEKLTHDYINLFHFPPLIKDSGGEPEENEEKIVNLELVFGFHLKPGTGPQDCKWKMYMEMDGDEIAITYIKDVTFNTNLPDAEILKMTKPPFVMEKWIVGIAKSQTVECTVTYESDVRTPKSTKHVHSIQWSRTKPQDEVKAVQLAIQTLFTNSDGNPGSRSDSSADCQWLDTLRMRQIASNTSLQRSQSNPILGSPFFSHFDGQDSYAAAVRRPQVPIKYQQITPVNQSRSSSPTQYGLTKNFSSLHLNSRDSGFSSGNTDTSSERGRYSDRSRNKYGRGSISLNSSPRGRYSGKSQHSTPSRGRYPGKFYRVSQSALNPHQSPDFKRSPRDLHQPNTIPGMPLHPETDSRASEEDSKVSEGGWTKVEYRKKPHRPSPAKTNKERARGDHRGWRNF
Sequence of Mitogen-activated protein kinase kinase kinase 7 (Homo sapiens) (O43318 whole entry): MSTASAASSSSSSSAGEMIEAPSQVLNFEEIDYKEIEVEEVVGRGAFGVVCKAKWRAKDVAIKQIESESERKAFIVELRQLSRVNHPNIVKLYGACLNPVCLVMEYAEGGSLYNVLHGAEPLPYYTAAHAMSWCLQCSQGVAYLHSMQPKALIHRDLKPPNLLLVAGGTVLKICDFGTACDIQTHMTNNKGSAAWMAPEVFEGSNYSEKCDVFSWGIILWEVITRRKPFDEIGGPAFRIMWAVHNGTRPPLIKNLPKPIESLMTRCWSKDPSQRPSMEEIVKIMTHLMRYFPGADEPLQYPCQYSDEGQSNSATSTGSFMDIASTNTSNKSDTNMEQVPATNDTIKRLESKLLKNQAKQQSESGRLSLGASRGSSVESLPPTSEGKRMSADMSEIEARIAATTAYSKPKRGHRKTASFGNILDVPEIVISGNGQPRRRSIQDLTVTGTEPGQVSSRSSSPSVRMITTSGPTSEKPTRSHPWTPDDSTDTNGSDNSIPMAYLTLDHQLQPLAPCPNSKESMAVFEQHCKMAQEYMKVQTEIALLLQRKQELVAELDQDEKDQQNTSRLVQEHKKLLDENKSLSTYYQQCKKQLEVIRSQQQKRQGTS
Sequence of Dual specificity mitogen-activated protein kinase kinase 4 (Homo sapiens) (P45985 whole entry): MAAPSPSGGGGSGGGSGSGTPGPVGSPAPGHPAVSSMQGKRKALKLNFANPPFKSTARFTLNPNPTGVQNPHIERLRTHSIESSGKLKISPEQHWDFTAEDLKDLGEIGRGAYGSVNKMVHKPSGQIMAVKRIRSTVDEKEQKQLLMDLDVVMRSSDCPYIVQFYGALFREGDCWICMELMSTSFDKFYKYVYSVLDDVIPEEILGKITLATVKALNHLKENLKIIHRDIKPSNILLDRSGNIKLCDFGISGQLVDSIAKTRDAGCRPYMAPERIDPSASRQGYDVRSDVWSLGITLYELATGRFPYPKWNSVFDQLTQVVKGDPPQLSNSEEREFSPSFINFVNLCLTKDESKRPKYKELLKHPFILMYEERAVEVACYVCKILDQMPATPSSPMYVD
Sequence of Dual specificity mitogen-activated protein kinase kinase 2 (P36507 whole entry): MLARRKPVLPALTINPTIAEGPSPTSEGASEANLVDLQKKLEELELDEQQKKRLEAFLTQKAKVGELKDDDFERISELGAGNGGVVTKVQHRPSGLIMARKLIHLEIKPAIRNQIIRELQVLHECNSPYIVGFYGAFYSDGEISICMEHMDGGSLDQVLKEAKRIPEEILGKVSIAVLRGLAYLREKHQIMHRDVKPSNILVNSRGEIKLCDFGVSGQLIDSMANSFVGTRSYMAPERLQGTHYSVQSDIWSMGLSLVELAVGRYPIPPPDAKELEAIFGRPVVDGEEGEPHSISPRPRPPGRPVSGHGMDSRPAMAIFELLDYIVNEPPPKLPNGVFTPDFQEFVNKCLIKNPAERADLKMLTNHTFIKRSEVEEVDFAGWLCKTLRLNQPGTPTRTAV

Structure (SMILES): C=C1CCC[C@H](C)OC(=O)c2c(O)cc(OC)cc2CCC[C@H](O)[C@@H]1O
- inhibition [1]: 70 to 80%
- IC50 [2]: 1260 nM

Structure (SMILES): COc1cc(O)c2c(c1)CCC[C@H](O)[C@H](O)C(=O)/C=C\C[C@H](C)OC2=O
- inhibition [3]: > 80%
- IC50 [4]: 8.16 nM
- inhibition [5]: > 80%
- inhibition [6]: > 80%
- IC50 [7]: 6.34 nM
- inhibition [8]: Active
- inhibition [9]: Active
- inhibition [10]: Active
- inhibition [11]: > 80%
- inhibition [12]: Active
- inhibition (INH) (TGF-beta receptor type-1 [13]): Active
- inhibition [14]: Active
- inhibition [15]: > 80%
- inhibition (INH) (TGF-beta receptor type-1 [16]): Active
- IC50 [17]: 388 nM
- IC50 [18]: 1.59 nM
- IC50 [19]: 1.13 nM
- inhibition [20]: > 80%
- inhibition [21]: > 80%
- IC50 [2]: 125 nM
